The source of these data is patent US20220030868A1, “FUNGICIDAL HALOMETHYL KETONES AND HYDRATES” (FMC CORPORATION, priority 2018, published 2022).

Molecules are shown by their SMILES.

One test deals with Phakopsora pachyrhizi. The experiment in a line: Test A: test suspension sprayed on soybean seedlings one day before inoculation with Phakopsora pachyrhizi spores (Asian soybean rust), visual disease rating. The class given is in vivo. The conditions noted are these: 100 = 100% disease control, 0 = no control; for pest or weed control at 10 ppm / pest or weed control at 50 ppm: Phakopsora pachyrhizi. The method in brief: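 Compound dissolved in acetone (3% of final volume), then suspended at the stated ppm in 50/50 acetone/water with 250 ppm PEG400 surfactant; sprayed to run-off on soybean seedlings, inoculated with P. pachyrhizi spores next day. Held saturated at 22° C for 24 h, then 8 days at 22° C; visual rating as % disease control versus controls.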

The subject of test [1] is Puccinia recondita f. sp. tritici. The experiment in a line: Test B: test suspension sprayed on wheat seedlings one day before inoculation with Puccinia recondita f. sp. tritici spores (wheat leaf rust), disease rating. It counts as in vivo. Particulars: 100 = 100% disease control, 0 = no control. An outline of the steps:
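Wheat seedlings were sprayed to run-off with compound suspended in 50/50 acetone/water containing 250 ppm PEG400, then inoculated with P. recondita f. sp. tritici spores the next day. Plants were held 24 h in saturated air at 20 °C, then 6 days in a growth chamber at 20 °C. Disease control was rated 0–100% relative to controls, with some entries run at 50 or 10 ppm.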

Turning to `C=CCOC(=O)c1cnn(Cc2ccc(O/C=C(\OCC)C(F)(F)F)cc2)c1` [compound 246], the “Test A rating (disease control)” value with Phakopsora pachyrhizi (10 ppm test suspension) was 100%. Further, in test [1] (10 ppm test suspension), the “Test B rating (disease control)” value was 0%.
On the same counts, the results for `O=C(OCC1CCC1)c1cnn(Cc2ccc(OCC3(C(F)(F)F)OCCO3)cc2)c1` [compound 249] are 100% and 0%.
On the same counts, the results for `CCO/C(=C\Oc1ccc(Cn2nccc2C(=O)OC)cc1)C(F)(F)F` [compound 250] are 0% and 0%.
On the same counts, the results for `CCO/C(=C\Oc1ccc(Cn2ccc(C(=O)OC)n2)cc1)C(F)(F)F` [compound 251] are 100% and 9%.
As to `CCO/C(=C\Oc1ccc(Cn2nccc2C(=O)OC(C)(C)C)cc1)C(F)(F)F` [compound 252], the “Test A rating (disease control)” value with Phakopsora pachyrhizi (10 ppm test suspension) turned out to be 0%. Also, the “Test B rating (disease control)” value in test [1] (10 ppm test suspension) is reported as 0%.
As for `CCO/C(=C\Oc1ccc(Cn2ccc(C(=O)OC(C)(C)C)n2)cc1)C(F)(F)F` [compound 253], the “Test A rating (disease control)” value with Phakopsora pachyrhizi (10 ppm test suspension) was found to be 0%. Moreover, in test [1] (10 ppm test suspension), the “Test B rating (disease control)” value is reported as 0%.
For the compound `CCO/C(=C\Oc1ccc(Cc2ncc(C(=O)NCC3CC3)s2)cc1)C(F)(F)F` [compound 254], the “Test A rating (disease control)” value in the test with Phakopsora pachyrhizi (10 ppm test suspension) is 73%. In test [1] (10 ppm test suspension), the “Test B rating (disease control)” value was 0%.
On the same counts, the results for `CCO/C(=C\Oc1ccc(Cc2ncc(C(=O)NCC(F)F)o2)cc1)C(F)(F)F` [compound 255] are 89% and 0%.
On the same counts, the results for `CCO/C(=C\Oc1ccc(Cc2ncc(C(=O)NCC3CC3)o2)cc1)C(F)(F)F` [compound 258] are 96% and 0%.
What is called pest or weed control is how far the test organism was held down. A high value points to strong suppression. Regarding `CCOC(=O)c1cnn(Cc2ccc(OCC(O)(O)C(F)(F)F)c(F)c2)c1` [compound 264], the pest or weed control at 10 ppm was found to be 99% in the test on Phakopsora pachyrhizi (10 ppm test suspension) and 80% in test [1] (10 ppm test suspension).
For the compound `CCOC(=O)c1cnn(C(C)c2ccc(O/C=C(\OCC)C(F)(F)F)cc2)c1` (stereo not drawn) [compound 267], in the test on Phakopsora pachyrhizi (10 ppm test suspension), the “Test A rating (disease control)” value turned out to be 94%. In addition, the “Test B rating (disease control)” value in test [1] (10 ppm test suspension) stood at 0%.
On the same counts, the results for `CCOC(=O)C1CCN(Cc2ccc(O/C=C(\OCC)C(F)(F)F)cc2)CC1` [compound 268] are 99% and 0%.
On the same counts, the results for `CCOC(=O)C1CCCN(Cc2ccc(O/C=C(\OCC)C(F)(F)F)cc2)C1` (stereo not drawn) [compound 269] are 100% and 0%.
For `O=C(OCC1CCCCC1)c1cnn(Cc2ccc(OCC3(C(F)(F)F)OCCO3)cc2)c1` [compound 272], the “Test A rating (disease control)” value in the test on Phakopsora pachyrhizi (10 ppm test suspension) was 100%. The “Test B rating (disease control)” value in test [1] (10 ppm test suspension) is reported as 0%.
In the case of `CCOC(=O)c1cnn(Cc2ccc(OCC3(C(F)(F)F)OCCO3)s2)c1` [compound 273], the pest or weed control at 50 ppm was 100% with Phakopsora pachyrhizi (50 ppm test suspension) and 0% in test [1] (50 ppm test suspension).
For the compound `CCOC(=O)C1=NOC(c2ccc(O/C=C(\OCC)C(F)(F)F)cc2)C1` (stereo not drawn) [compound 278], the “Test A rating (disease control)” value in the test on Phakopsora pachyrhizi (50 ppm test suspension) came to 94%. The “Test B rating (disease control)” value in test [1] (50 ppm test suspension) was 0%.
On the same counts, the results for `CCO/C(=C\Oc1ccc([N+](=O)[O-])cc1)C(F)(F)F` [compound 279] are 0% and 0%.
On the same counts, the results for `CSc1nccc(Cc2ccc(OCC3(C(F)(F)F)OCCO3)cc2)n1` [compound 281] are 95% and 98%.
On the same counts, the results for `CS(=O)(=O)c1nccc(Cc2ccc(OCC3(C(F)(F)F)OCCO3)cc2)n1` [compound 282] are 0% and 0%.
In the case of `O=C(OCC1CCCC1)c1cnn(Cc2ccc(OCC3(C(F)(F)F)OCCO3)cc2)c1` [compound 284], in the test on Phakopsora pachyrhizi (10 ppm test suspension), the “Test A rating (disease control)” value was 100%. In test [1] (10 ppm test suspension), the “Test B rating (disease control)” value is listed as 0%.
On the same counts, the results for `CC=CCOC(=O)c1cnn(Cc2ccc(OCC3(C(F)(F)F)OCCO3)cc2)c1` [compound 285] are 100% and 0%.
On the same counts, the results for `C=CCOC(=O)c1ccn(Cc2ccc(O/C=C(\OCC)C(F)(F)F)cc2)n1` [compound 291] are 100% and 0%.
`CCCOC(=O)c1ccn(Cc2ccc(O/C=C(\OCC)C(F)(F)F)cc2)n1` [compound 292]: the “Test A rating (disease control)” value in the test on Phakopsora pachyrhizi (10 ppm test suspension) came out at 100%. Also, the “Test B rating (disease control)” value in test [1] (10 ppm test suspension) stood at 0%.
On the same counts, the results for `CC#CCOC(=O)c1ccn(Cc2ccc(O/C=C(\OCC)C(F)(F)F)cc2)n1` [compound 293] are 100% and 0%.
On the same counts, the results for `CCOC(=O)c1cnn(CCCc2ccc(O/C=C(\OCC)C(F)(F)F)cc2)c1` [compound 294] are 100% and 0%.
As to `CCOC(=O)c1cnn(CCCc2ccc(OCC3(C(F)(F)F)OCCO3)cc2)c1` [compound 296], the “Test A rating (disease control)” value in the test with Phakopsora pachyrhizi (10 ppm test suspension) was 0%. For the same compound, the “Test B rating (disease control)” value in test [1] (10 ppm test suspension) stood at 0%.
For `CCOC(=O)c1cnn(Cc2ccc(O/C=C(\OCC(F)(F)F)C(F)(F)F)cc2)c1` [compound 298], the “Test A rating (disease control)” value in the test on Phakopsora pachyrhizi (10 ppm test suspension) was 0%. Also, the “Test B rating (disease control)” value in test [1] (10 ppm test suspension) is on record as 0%.
On to `CCO/C(=C\Oc1ccc(Cn2ccc(C(=O)O)n2)cc1)C(F)(F)F` [compound 299], for which the “Test A rating (disease control)” value with Phakopsora pachyrhizi (10 ppm test suspension) worked out at 100%. Besides, in test [1] (10 ppm test suspension), the “Test B rating (disease control)” value turned out to be 0%.
On the same counts, the results for `CC#CCOC(=O)c1cnn(Cc2cccc(O/C=C(\OCC)C(F)(F)F)c2)c1` [compound 300] are 100% and 0%.
Consider `CCOC(=O)c1cnn(Cc2cccc(O/C=C(\OCC)C(F)(F)F)c2F)c1` [compound 301], for which the pest or weed control at 50 ppm in the test with Phakopsora pachyrhizi (50 ppm test suspension) is 100%; in test [1] (50 ppm test suspension) it was 0%.
On the same counts, the results for `CCOC(=O)c1cnn(Cc2cc(O/C=C(\OCC)C(F)(F)F)ccc2F)c1` [compound 302] are 99% and 0%.
On the same counts, the results for `CCOC(=O)c1cnn(Cc2cccc(O/C=C(\OCC)C(F)(F)F)c2C)c1` [compound 303] are 0% and 0%.
As to `CCOC(=O)c1cnn(C(C)c2cccc(O/C=C(\OCC)C(F)(F)F)c2)c1` (stereo not drawn) [compound 304], the “Test A rating (disease control)” value in the test on Phakopsora pachyrhizi (50 ppm test suspension) is 96%. Besides, in test [1] (50 ppm test suspension), the “Test B rating (disease control)” value was found to be 0%.
As for `O=Cc1cccc(OCC(O)(O)C(F)(F)F)c1` [compound 305], the pest or weed control at 10 ppm in the test on Phakopsora pachyrhizi (10 ppm test suspension) was 70%; in test [1] (10 ppm test suspension), 0%.
Regarding `CCO/C(=C\Oc1ccc(Cc2ccnc(S(C)(=O)=O)n2)cc1)C(F)(F)F` [compound 307], in the test on Phakopsora pachyrhizi (50 ppm test suspension), the “Test A rating (disease control)” value was found to be 0%. Also, the “Test B rating (disease control)” value in test [1] (50 ppm test suspension) was 0%.
Turning to `CCO/C(=C\Oc1ccc(Cc2ccnc(SC)n2)cc1)C(F)(F)F` [compound 308], the “Test A rating (disease control)” value in the test with Phakopsora pachyrhizi (50 ppm test suspension) is reported as 25%. Further, the “Test B rating (disease control)” value in test [1] (50 ppm test suspension) was determined as 0%.
Consider `CCO/C(=C\Oc1ccc(CN2CCC(C(=O)OC)CC2)cc1)C(F)(F)F` [compound 309], for which, in the test with Phakopsora pachyrhizi (10 ppm test suspension), the “Test A rating (disease control)” value turned out to be 100%. Moreover, in test [1] (10 ppm test suspension), the “Test B rating (disease control)” value is on record as 0%.
On the same counts, the results for `CCO/C(=C\Oc1ccc(CN2CCC(C#N)CC2)cc1)C(F)(F)F` [compound 311] are 0% and 0%.
Turning to `CCO/C(=C\Oc1ccc(CN2CCC(OC)CC2)cc1)C(F)(F)F` [compound 312], the “Test A rating (disease control)” value with Phakopsora pachyrhizi (10 ppm test suspension) was 0%. Further, the “Test B rating (disease control)” value in test [1] (10 ppm test suspension) worked out at 0%.
Regarding `CCO/C(=C\Oc1ccc(Cc2ccnc(OCC[Si](C)(C)C)n2)cc1)C(F)(F)F` [compound 313], the “Test A rating (disease control)” value in the test on Phakopsora pachyrhizi (50 ppm test suspension) stood at 0%. Besides, in test [1] (50 ppm test suspension), the “Test B rating (disease control)” value worked out at 0%.
Turning to `C[Si](C)(C)CCOc1nccc(Cc2ccc(OCC3(C(F)(F)F)OCCO3)cc2)n1` [compound 314], in the test with Phakopsora pachyrhizi (50 ppm test suspension), the “Test A rating (disease control)” value was determined as 0%. Further, the “Test B rating (disease control)” value in test [1] (50 ppm test suspension) is listed as 0%.
As for `CCOC(=O)c1cnn(-c2ccc(O/C=C(\OCC)C(F)(F)F)cc2)c1` [compound 316], the “Test A rating (disease control)” value in the test on Phakopsora pachyrhizi (50 ppm test suspension) was 100%. Moreover, the “Test B rating (disease control)” value in test [1] (50 ppm test suspension) is 9%.
Consider `O=C(OC1CCC1)c1cnn(Cc2ccc(OCC3(C(F)(F)F)OCCO3)cc2)c1` [compound 318], for which the “Test A rating (disease control)” value with Phakopsora pachyrhizi (10 ppm test suspension) was determined as 100%. For the same compound, in test [1] (10 ppm test suspension), the “Test B rating (disease control)” value stood at 0%.
For `CCOC(=O)c1cnn(Cc2ccc(OC(F)(F)C3(C(F)(F)F)OCCO3)cc2)c1` [compound 319], in the test on Phakopsora pachyrhizi (50 ppm test suspension), the “Test A rating (disease control)” value worked out at 100%. In addition, the “Test B rating (disease control)” value in test [1] (50 ppm test suspension) came to 41%.
On the same counts, the results for `CCO/C(=C\Oc1cccc(Cn2cc(C(=O)O)cn2)c1)C(F)(F)F` [compound 323] are 100% and 0%.
Take `CCCO/C(=C\Oc1cccc(Cn2cc(C(=O)OCC)cn2)c1)C(F)(F)F` [compound 324]: the “Test A rating (disease control)” value in the test on Phakopsora pachyrhizi (10 ppm test suspension) amounted to 0%. For the same compound, the “Test B rating (disease control)” value in test [1] (10 ppm test suspension) was 0%.
As for `C#CCOC(=O)c1ccn(Cc2ccc(O/C=C(\OCC)C(F)(F)F)cc2)n1` [compound 325], the “Test A rating (disease control)” value with Phakopsora pachyrhizi (10 ppm test suspension) is 100%. In test [1] (10 ppm test suspension), the “Test B rating (disease control)” value turned out to be 0%.
Regarding `CCC#CCOC(=O)c1ccn(Cc2ccc(O/C=C(\OCC)C(F)(F)F)cc2)n1` [compound 326], the “Test A rating (disease control)” value with Phakopsora pachyrhizi (10 ppm test suspension) stood at 100%. In addition, the “Test B rating (disease control)” value in test [1] (10 ppm test suspension) came out at 0%.
